Columns and labels:
Muscarinic M3 = Muscarinic M3 (Homo sapiens, UniProt P20309); assay: Eurofins radioligand binding
Prostanoid EP4 = Prostanoid EP4 (Homo sapiens, UniProt P35408); assay: Eurofins radioligand binding
[1] = Dog MTD with pharmacokinetics study; assay type: in vivo; details: for AUC / Cmax: dog MTD, plasma
From the text: (§1) To this end, we prepared a 200 g lot of PAM 5 and performed, in parallel, a dog maximum tolerated dose (MTD) with a pharmacokinetics study and a 14-day rat exploratory toxicology and toxicokinetic study, quantifying plasma Cmax and AUC for both parent 5 and metabolite 6. […] Moreover, while exposure increased with dose, it was nonlinear. […] The series was terminated based on (1) poor and less than dose-proportional increases in systemic exposure, (2) lack of a kinetic isotope effect to diminish production of 6 in dogs and rats, and (3) strong likelihood of even higher concentrations of 6 to be present in man.

[2] = GSH trapping in microsomes; assay type: in vitro ADME; details: rat, dog, cyno, and human microsomes
Serotonin (5-HT2B) = Serotonin (5-HT2B) (Homo sapiens, UniProt P41595); assay: Eurofins radioligand binding
Muscarinic M1 = Muscarinic M1 (Homo sapiens, UniProt P11229); assay: Eurofins radioligand binding
GABAA, Muscimol, Central = assay: Eurofins radioligand binding; design: species or system Rat
[3] = molecular target: Nicotinic Acetylcholine α3β4 (Homo sapiens, UniProt P30926+P32297); assay: Eurofins radioligand binding
[4] = molecular target: Transporter, Serotonin (SERT) (Homo sapiens, UniProt P31645); assay: Eurofins radioligand binding
[5] = tested on: 68 GPCRs, ion channels, and transporters; assay: Eurofins lead profiling screen, whole panel; assay type: binding; details: 10 μM; significant means >50%
Adrenergic α1D = Adrenergic α1D (Homo sapiens, UniProt P25100); assay: Eurofins radioligand binding
Adenosine A3 = Adenosine A3 (Homo sapiens, UniProt P0DMS8); assay: Eurofins radioligand binding
[6] = molecular target: Platelet Activating Factor (PAF) (Homo sapiens, UniProt P25105); assay: Eurofins radioligand binding
[7] = molecular target: Epidermal Growth Factor (EGF) (Homo sapiens, UniProt P00533); assay: Eurofins radioligand binding
Dopamine D4.2 = assay: Eurofins radioligand binding; design: species or system Human
[8] = tested on: Calcium Channel L-Type, Benzothiazepine; assay: Eurofins radioligand binding; design: species or system Rat
[9] = molecular target: bile salt export pump (BSEP) (Homo sapiens, UniProt O95342); assay: Bile salt export pump inhibition; assay type: in vitro ADME
Muscarinic M2 = Muscarinic M2 (Homo sapiens, UniProt P08172); assay: Eurofins radioligand binding
[10] = Rat 14-day exploratory toxicology and toxicokinetic study; assay type: in vivo; details: rat 14-day study, plasma
From the text: as §1

Imidazoline I2, Central = assay: Eurofins radioligand binding; design: species or system Rat
Histamine H2 = Histamine H2 (Homo sapiens, UniProt P25021); assay: Eurofins radioligand binding
Calcium Channel N-Type = Calcium Channel N-Type (Rattus norvegicus, UniProt Q02294); assay: Eurofins radioligand binding
[11] = tested on: Glutamate, NMDA, Phencyclidine; assay: Eurofins radioligand binding; design: species or system Rat
CYP 3A4 = CYP 3A4 (Homo sapiens, UniProt P08684); assay: CYP isoform contribution to metabolism: 3A4; assay type: in vitro ADME
seizure activity = assay: Behavioral manifestations of seizure activity (modified Racine score); assay type: in vivo, C57Bl/6 mice; details: 100 mg/kg IP in mice; modified Racine scale 0-5
Protocol: page 9: Brain plasma concentration ratio (Kp) was calculated by dividing brain concentration by plasma concentration for each animal. Unbound brain to unbound plasma concentration ratio (Kp,uu) is calculated using the following formula: Kp,uu = (Brain ng/g x brain fu)/(plasma ng/ml x plasma fu). Pharmacokinetic profiles in rats following oral single escalating doses Single escalating oral dosing in Sprague-Dawley rats was performed at Frontage Laboratories according to their non-GLP Standard Operating Procedure and IACUC protocols. In short, compounds were formulated in 10% Tween 80 in water and dosed at 10 mg/kg. At different times, arterial blood was collected from a femoral artery catheter, and compound concentration was determined in plasma by LC-MS/MS following their non-GLP protocol. PK parameters were determined using Phoenix WinNonlin software (version 6.3). In-vitro determination of blood-brain barrier penetration potential Blood-brain barrier penetration was determined using MDR1-MDCK cell monolayers by Absorption Systems, following their protocol. In short, compounds were incubated at […] final concentration on one side of the cell monolayer for 2 hours. […] Animals were monitored continuously and scored for behavioral manifestations of seizure activity at 5, 15, 30 min, and 1 h. Behavioral manifestations of seizures were scored using a modified Racine scoring system. […]

Adrenergic β2 = Adrenergic β2 (Homo sapiens, UniProt P07550); assay: Eurofins radioligand binding

Sequence of Muscarinic M3 (P20309 whole entry): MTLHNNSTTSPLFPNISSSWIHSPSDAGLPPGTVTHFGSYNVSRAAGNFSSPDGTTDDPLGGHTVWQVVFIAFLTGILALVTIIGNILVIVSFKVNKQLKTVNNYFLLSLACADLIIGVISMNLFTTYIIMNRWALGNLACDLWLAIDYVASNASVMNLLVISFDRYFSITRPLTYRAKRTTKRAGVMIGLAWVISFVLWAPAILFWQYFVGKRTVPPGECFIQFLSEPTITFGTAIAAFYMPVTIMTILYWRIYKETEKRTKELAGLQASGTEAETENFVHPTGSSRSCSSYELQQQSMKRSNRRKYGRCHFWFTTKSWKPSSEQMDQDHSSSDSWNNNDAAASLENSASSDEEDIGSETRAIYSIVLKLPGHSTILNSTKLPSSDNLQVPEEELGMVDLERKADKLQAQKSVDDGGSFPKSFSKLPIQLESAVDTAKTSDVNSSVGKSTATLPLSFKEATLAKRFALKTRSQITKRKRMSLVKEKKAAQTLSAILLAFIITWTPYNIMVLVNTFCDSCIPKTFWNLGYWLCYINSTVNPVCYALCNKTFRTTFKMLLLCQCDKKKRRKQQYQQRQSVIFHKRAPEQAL
Sequence of Serotonin (5-HT2B) (P41595 whole entry): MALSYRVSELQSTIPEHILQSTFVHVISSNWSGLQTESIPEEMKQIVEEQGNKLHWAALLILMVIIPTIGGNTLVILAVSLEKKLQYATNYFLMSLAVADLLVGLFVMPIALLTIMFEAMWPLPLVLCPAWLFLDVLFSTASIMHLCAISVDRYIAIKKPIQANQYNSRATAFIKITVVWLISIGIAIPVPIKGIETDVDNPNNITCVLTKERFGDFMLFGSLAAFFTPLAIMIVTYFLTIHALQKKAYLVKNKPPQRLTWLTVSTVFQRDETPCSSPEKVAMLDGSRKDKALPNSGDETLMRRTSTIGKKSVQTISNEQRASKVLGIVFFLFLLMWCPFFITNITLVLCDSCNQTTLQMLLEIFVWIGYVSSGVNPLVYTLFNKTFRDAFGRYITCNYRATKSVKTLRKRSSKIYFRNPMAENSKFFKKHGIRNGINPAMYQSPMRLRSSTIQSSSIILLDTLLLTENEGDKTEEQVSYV
Sequence of Muscarinic M1 (P11229 whole entry): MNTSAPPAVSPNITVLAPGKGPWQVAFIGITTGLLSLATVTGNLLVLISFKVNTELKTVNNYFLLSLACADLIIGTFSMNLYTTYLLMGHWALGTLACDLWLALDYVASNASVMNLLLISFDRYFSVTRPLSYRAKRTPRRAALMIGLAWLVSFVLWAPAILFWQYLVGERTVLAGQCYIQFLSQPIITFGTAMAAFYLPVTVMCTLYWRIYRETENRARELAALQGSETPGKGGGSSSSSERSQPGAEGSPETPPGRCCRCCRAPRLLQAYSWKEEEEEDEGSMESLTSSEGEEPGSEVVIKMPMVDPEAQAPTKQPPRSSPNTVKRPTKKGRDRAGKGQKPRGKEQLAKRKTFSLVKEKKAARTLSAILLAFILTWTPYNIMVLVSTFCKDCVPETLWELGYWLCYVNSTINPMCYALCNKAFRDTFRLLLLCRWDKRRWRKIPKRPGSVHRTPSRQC
Sequence of Histamine H2 (P25021 whole entry): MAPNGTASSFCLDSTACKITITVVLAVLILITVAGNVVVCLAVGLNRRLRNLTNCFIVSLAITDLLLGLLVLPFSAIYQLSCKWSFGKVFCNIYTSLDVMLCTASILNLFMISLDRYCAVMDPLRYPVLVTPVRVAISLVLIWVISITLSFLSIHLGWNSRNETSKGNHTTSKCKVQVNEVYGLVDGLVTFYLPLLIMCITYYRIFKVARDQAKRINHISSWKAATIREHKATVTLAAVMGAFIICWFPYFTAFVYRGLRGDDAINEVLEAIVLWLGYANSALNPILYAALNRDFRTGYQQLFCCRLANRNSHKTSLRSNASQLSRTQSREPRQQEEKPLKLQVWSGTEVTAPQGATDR
Sequence of Platelet Activating Factor (PAF) (P25105 whole entry): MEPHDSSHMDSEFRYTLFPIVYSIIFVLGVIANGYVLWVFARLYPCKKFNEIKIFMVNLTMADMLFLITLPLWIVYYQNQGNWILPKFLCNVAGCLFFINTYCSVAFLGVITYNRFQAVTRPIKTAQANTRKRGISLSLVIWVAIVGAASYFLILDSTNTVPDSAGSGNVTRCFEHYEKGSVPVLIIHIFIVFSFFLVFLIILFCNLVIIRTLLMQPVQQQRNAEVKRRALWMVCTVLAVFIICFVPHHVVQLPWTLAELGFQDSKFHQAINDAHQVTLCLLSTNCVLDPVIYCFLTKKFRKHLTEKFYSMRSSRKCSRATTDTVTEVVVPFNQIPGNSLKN
Sequence of CYP 3A4 (P08684 whole entry, canonical isoform): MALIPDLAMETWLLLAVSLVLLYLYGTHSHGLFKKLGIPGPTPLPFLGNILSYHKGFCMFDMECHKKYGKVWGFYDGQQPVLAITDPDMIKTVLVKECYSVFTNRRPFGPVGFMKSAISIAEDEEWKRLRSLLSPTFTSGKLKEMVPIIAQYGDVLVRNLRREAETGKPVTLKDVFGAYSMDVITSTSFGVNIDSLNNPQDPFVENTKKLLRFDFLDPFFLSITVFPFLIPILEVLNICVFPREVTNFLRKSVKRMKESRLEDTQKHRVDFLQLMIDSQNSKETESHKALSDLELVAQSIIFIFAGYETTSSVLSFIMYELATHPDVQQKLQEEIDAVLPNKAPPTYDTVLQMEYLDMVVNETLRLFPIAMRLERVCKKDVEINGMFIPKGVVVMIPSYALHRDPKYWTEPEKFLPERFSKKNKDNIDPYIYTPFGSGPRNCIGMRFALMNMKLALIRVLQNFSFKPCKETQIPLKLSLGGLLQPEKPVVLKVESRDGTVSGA
Sequence of Adenosine A3 (P0DMS8 whole entry): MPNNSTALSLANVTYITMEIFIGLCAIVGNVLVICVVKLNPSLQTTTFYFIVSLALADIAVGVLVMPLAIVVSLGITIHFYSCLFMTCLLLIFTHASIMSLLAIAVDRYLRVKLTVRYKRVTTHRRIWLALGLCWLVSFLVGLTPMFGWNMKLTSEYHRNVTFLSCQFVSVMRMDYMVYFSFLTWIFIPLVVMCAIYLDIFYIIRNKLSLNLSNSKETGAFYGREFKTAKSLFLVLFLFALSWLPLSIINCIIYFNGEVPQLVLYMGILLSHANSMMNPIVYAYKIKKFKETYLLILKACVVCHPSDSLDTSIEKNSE
Sequence of Muscarinic M2 (P08172 whole entry): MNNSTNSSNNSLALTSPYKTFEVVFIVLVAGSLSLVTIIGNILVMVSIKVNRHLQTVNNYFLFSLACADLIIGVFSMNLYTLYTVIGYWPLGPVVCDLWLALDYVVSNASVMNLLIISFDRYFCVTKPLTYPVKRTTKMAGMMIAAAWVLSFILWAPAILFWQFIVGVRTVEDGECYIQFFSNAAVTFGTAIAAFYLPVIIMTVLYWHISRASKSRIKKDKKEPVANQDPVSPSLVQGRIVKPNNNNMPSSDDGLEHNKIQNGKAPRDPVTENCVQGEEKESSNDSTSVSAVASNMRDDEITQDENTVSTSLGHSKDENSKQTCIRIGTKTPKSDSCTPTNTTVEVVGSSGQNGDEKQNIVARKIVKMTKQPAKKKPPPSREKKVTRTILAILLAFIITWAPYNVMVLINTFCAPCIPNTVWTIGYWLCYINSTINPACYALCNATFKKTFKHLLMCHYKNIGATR
Sequence of Epidermal Growth Factor (EGF) (P00533 25-1210): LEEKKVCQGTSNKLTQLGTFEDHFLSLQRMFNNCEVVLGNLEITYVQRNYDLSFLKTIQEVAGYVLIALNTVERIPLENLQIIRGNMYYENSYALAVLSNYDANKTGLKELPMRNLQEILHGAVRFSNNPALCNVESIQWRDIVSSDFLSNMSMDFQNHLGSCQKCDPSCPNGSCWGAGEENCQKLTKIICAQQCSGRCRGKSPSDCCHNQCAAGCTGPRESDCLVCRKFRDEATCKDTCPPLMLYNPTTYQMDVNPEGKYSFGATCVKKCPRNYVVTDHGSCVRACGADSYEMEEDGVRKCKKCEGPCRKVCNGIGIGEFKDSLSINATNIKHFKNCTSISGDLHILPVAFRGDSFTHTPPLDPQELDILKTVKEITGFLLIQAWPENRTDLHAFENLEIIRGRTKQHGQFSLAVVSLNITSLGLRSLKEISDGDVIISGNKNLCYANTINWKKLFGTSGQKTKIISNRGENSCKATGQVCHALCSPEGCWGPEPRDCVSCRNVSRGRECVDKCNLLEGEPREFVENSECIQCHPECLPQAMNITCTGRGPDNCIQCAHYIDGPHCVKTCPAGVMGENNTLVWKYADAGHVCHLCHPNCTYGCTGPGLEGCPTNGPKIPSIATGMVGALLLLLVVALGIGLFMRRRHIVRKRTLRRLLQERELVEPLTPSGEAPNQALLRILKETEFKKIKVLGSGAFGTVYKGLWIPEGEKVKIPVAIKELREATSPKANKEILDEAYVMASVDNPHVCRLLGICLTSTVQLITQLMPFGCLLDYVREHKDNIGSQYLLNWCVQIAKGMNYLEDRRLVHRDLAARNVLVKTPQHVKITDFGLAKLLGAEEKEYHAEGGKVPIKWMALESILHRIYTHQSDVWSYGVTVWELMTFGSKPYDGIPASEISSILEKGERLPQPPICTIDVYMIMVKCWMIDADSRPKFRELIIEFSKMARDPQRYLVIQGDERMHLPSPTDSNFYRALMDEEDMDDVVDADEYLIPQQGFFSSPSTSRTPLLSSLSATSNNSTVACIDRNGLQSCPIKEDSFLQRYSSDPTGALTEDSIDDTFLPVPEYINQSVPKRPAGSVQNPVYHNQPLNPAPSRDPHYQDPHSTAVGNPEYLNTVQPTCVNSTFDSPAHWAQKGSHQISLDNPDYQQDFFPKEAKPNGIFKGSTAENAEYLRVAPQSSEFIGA

Work on `[2H]C1([2H])c2ncccc2C(=O)N1Cc1c(F)cc(-c2cccc3nn(C([2H])([2H])[2H])cc23)cc1F` [compound 5] yielded an inhibition at 10 µM (Muscarinic M3) of -10%, an inhibition at 10 µM (Prostanoid EP4) of -3% and an AUC ([1]; 30 mg/kg PO of 5) of 34900 ng·h/mL. For the same compound, the Cmax ([1]; 30 mg/kg PO of 5) was 2400 ng/mL, the AUC ([1]; 300 mg/kg PO of 5) was 68000 ng·h/mL and the Cmax ([1]; 300 mg/kg PO of 5) was 3620 ng/mL. For the same compound, the AUC ([1]; 1000 mg/kg PO of 5) was 103000 ng·h/mL, the Cmax ([1]; 1000 mg/kg PO of 5) was 5560 ng/mL and the “tolerability in dog MTD” value ([1]; dog, in vivo, po) was “well-tolerated”. The “conjugation in GSH trapping studies” value [2] was less than 0.1%, the inhibition at 10 µM (Serotonin (5-HT2B)) was 10% and the inhibition at 10 µM (Muscarinic M1) was 0%. The “% Inhibition at 10 µM” value (GABAA, Muscimol, Central) was 0%, the inhibition at 10 µM [3] was -7% and the inhibition at 10 µM [4] was -4%. For the same compound, the “activity in Eurofins lead profiling screen, whole panel” value [5] was “no significant activity”, the inhibition at 10 µM (Adrenergic α1D) was -15% and the inhibition at 10 µM (Adenosine A3) was 12%. For the same compound, the inhibition at 10 µM [6] was 22%, the inhibition at 10 µM [7] was 3% and the “% Inhibition at 10 µM” value (Dopamine D4.2) was 13%. For the same compound, the “% Inhibition at 10 µM” value [8] was 15%, the IC50 [9] was 42.3 µM and the inhibition at 10 µM (Muscarinic M2) was 5%. The AUC at 14 days ([10]; day 14, 300 mg/kg PO of 5) was 321 µg·h/mL, the Cmax at 14 days ([10]; day 14, 300 mg/kg PO of 5) was 22200 ng/mL and the AUC at 14 days ([10]; day 14, 750 mg/kg PO of 5) was 536 µg·h/mL. It also gave a Cmax at 14 days ([10]; day 14, 750 mg/kg PO of 5) of 31300 ng/mL, an AUC at 14 day ([10]; day 14, 1500 mg/kg PO of 5) of 518 µg·h/mL and a Cmax at 14 days ([10]; day 14, 1500 mg/kg PO of 5) of 30700 ng/mL. The “% Inhibition at 10 µM” value (Imidazoline I2, Central) was 59%, the inhibition at 10 µM (Histamine H2) was 2% and the inhibition at 10 µM (Calcium Channel N-Type) was -2%. The “% Inhibition at 10 µM” value [11] was -1%, the “contribution of CYP 3A4 to metabolism” value (CYP 3A4) was 92.6% and the Racine score (seizure activity) was 1. It also gave an inhibition at 10 µM (Adrenergic β2) of -1%.

Source: publication PMC12006963, “Application of Deuterium in an M1 Positive Allosteric Modulator Back-Up Program: The Discovery of VU6045422” (ACS Chemical Neuroscience, 2025)
